Source: patent US7008961B1, “Composition and method for treating carcinoma” (priority 1995, dated 2006)
Where two headings read alike, the source gives them in different places.

Assays:
Swiss Webster mice = type: in vivo; settings: s.c. every other day for 2 weeks
Experimental: The toxicity of two solvents for Rh-123, DMSO and alcohol-glucose, was studied in 60-day-old Swiss Webster mice (Simonsen Laboratories, Inc., Gilroy, Calif.). For each solvent there were five groups of five mice each, with the Rh-123 dose per group being 0, 2.0, 7.5, 15, and 20 mg/kg of body weight. A sixth group of five mice were not given any solvent or Rh-123. The solvents, with and without Rh-123, were administered at a concentration of 50% by volume DMSO in distilled water, and 5% alcohol by volume in a 5% by weight solution of glucose in distilled water. […] The concentration of Rh-123 was 5 mg/ml. Appropriate controls were utilized. The mice were injected subcutaneously every other day for 2 weeks.

[1] = system: autochthonous rat prostate complex adenocarcinoma (ARPCA); test: Induced autochthonous rat prostate adenocarcinoma in L-W rats; type: in vivo; settings: 15 mg/kg BW s.c. every other day for six doses
Experimental: To determine the effectiveness of Rh-123 on induced autochthonous rat prostate adenocarcinoma developed within the prostate gland and seminal vesicles of L-W rats, thirteen L-W rats were inoculated intravenously with acidified MNU (30 mg/kg of body weight (BW)). Following the single inoculation of MNU, the rats were each implanted subcutaneously with 50 mg TP sealed in a silastic tube. Three implants of TP were administered, each at intervals of 2 months. After a latent period of 4–6 months, small palpable tumors were detected in the abdomen. The rats were then administered Rh-123 (15 mg/kg BW) subcutaneously every other day for six doses. The Rh-123 was dissolved in a 5% (by volume) ethanol-5% (by weight) glucose solution in sterile water at a concentration of 5 mg/ml. The rats were sacrificed 1 week after the last dose of Rh-123 and their tissues were fixed in 10% formalin.

[2] = system: PC-3 prostate cancer cells; test: MTT cytotoxicity/viability assay, PC-3; type: cell-based, human
Description: (§1) Assays of Rh-123 toxicity were done with three human prostate cancer cell lines, […], et al.: Establishment and characterization of a human prostatic carcinoma cell line, Invest Urol 17:16-23, 1979), DU-145 (Stone […], et al.: Isolation of a human prostatic carcinoma cell line (DU145), Int J Cancer 21:274-281, 1978), and LNCaP (Horoszewitz J, Leong […], et al.: LNCaP model of human prostatic carcinoma, Cancer Res 43:1809-1818, 1983), and a non-tumorigenic diploid prostate fibroblast cell strain (NPF-209) derived in our laboratories from a normal adult prostate. The NPF cells were used as controls, i.e., for comparison. The cells were maintained in disposable plastic culture vessels in a 1:1 mix of Dulbecco's modified Eagle's medium and Ham's F12 (DMEM/F12, from Sigma Chemical Co, St. Louis, Mo.) supplemented with 10% fetal bovine serum (FBS, from HyClone Labs, Inc., Logan, Utah). 3-[4,5-Dimethylthiazol-2-yl]-2,5-diphenyltetrazolium bromide (MTT), DMSO, and other chemicals were also obtained from Sigma. […] Two different in vitro assays were used to assess cell viability following Rh-123 treatment, namely, • i) colony formation by a clonal assay procedure ([…], Ham R G: Clonal growth of human keratinocytes with small amounts of dialyzed serum, In Vitro 16:526-538, 1980); and • ii) viability of cells determined by the MTT assay utilizing previously described techniques (Alley […], Monks A, et al.: Feasibility of drug screening with panels of human tumor cell lines using a microculture tetrazolium assay, Cancer Res 40:589-601, 1988). Cytotoxicity due to Rh-123 treatment was determined with the human prostate cancer cells grown in 96-well disposable microtiter plates. […] The plates were next read at A540 […] with an Emax precision microplate reader (Molecular Devices Corporation, Menlo Park, Calif.). […] The cell-bound dye is dissolved with DMSO and spectrophotometrically quantitated by absorbance at a wavelength of 540 nm. The OD540 nm reading is a measure of the number of viable cells present in the test sample. […]

[3] = system: LNCaP prostate cancer cells; test: MTT cytotoxicity/viability assay, LNCaP; type: cell-based, human
Description: (§2) Assays of Rh-123 toxicity were done with three human prostate cancer cell lines, […], et al.: Establishment and characterization of a human prostatic carcinoma cell line, Invest Urol 17:16-23, 1979), DU-145 (Stone […], et al.: Isolation of a human prostatic carcinoma cell line (DU145), Int J Cancer 21:274-281, 1978), and LNCaP (Horoszewitz J, Leong […], et al.: LNCaP model of human prostatic carcinoma, Cancer Res 43:1809-1818, 1983), and a non-tumorigenic diploid prostate fibroblast cell strain (NPF-209) derived in our laboratories from a normal adult prostate. The NPF cells were used as controls, i.e., for comparison. […] Two different in vitro assays were used to assess cell viability following Rh-123 treatment, namely, • i) colony formation by a clonal assay procedure ([…], Ham R G: Clonal growth of human keratinocytes with small amounts of dialyzed serum, In Vitro 16:526-538, 1980); and • ii) viability of cells determined by the MTT assay utilizing previously described techniques (Alley […], Monks A, et al.: Feasibility of drug screening with panels of human tumor cell lines using a microculture tetrazolium assay, Cancer Res 40:589-601, 1988). Cytotoxicity due to Rh-123 treatment was determined with the human prostate cancer cells grown in 96-well disposable microtiter plates. […] The OD540 nm reading is a measure of the number of viable cells present in the test sample. […]

[4] = system: DU-145 prostate cancer cells; test: MTT cytotoxicity/viability assay, DU-145; type: cell-based, human
Description: as §1

[5] = system: NPF non-tumorigenic diploid prostate fibroblast cells; test: MTT cytotoxicity/viability assay, NPF; type: cell-based, human
Description: as §2

[6] = system: PC-3 prostate cancer cells; test: Clonogenic assay (colony growth), PC-3; type: cell-based, human
Description: (§3) Assays of Rh-123 toxicity were done with three human prostate cancer cell lines, […], et al.: Establishment and characterization of a human prostatic carcinoma cell line, Invest Urol 17:16-23, 1979), DU-145 (Stone […], et al.: Isolation of a human prostatic carcinoma cell line (DU145), Int J Cancer 21:274-281, 1978), and LNCaP (Horoszewitz J, Leong […], et al.: LNCaP model of human prostatic carcinoma, Cancer Res 43:1809-1818, 1983), and a non-tumorigenic diploid prostate fibroblast cell strain (NPF-209) derived in our laboratories from a normal adult prostate. The NPF cells were used as controls, i.e., for comparison. […] Two different in vitro assays were used to assess cell viability following Rh-123 treatment, namely, • i) colony formation by a clonal assay procedure ([…], Ham R G: Clonal growth of human keratinocytes with small amounts of dialyzed serum, In Vitro 16:526-538, 1980); and • ii) viability of cells determined by the MTT assay utilizing previously described techniques (Alley […], Monks A, et al.: Feasibility of drug screening with panels of human tumor cell lines using a microculture tetrazolium assay, Cancer Res 40:589-601, 1988). Clonogenic potential of the treated human prostate cancer cells was determined on 24-hour-old cells seeded in 60 mm disposable dishes (1-2×10^2 cells/dish). […]

[7] = system: LNCaP prostate cancer cells; test: Clonogenic assay (colony growth), LNCaP; type: cell-based, human
Description: as §3

[8] = system: DU-145 prostate cancer cells; test: Clonogenic assay (colony growth), DU-145; type: cell-based, human
Description: as §3

[9] = system: normal human adult prostate fibroblasts (NPF); test: Clonogenic assay (colony growth), NPF; type: cell-based
Description: as §3

[10] = system: metastatic hormone-refractory prostate cancer; test: Phase I study: prostate specific acid phosphatase in blood after a single dose; type: in vivo, human; settings: Patient 4, Level II (24 mg/m^2), single infusion
Experimental: The FDA has approved human clinical Phase I study of Rh-123. This phase evaluates the toxicity of Rh-123. The objective of the study is to determine safe dosing levels for Rh-123 starting at a level known to be safe for animals (about 0.3 mg/kg, which is equivalent to about 12 mg/m^2 for the typical prostate cancer patent), and proceeding upward in dosage until signs of moderate toxicity are observed. The Phase I study includes 21 volunteer patients with metastatic hormone-refractory prostate cancer to establish toxicity in a single dose escalation schedule. Only one dose per volunteer participant has been approved to date by the FDA, starting at 12 mg/m^2 at level I (three participants per level), and increasing in subsequent levels until dose-limiting toxicity is observed. Using a solution of four milligrams of Rh-123 per milliliter of a solution which includes 5% alcohol and 5% glucose in distilled water, the FDA has approved the dose escalation schedule shown in Table I: [table] As of the date of this application for patent, seven patients have been treated in accordance with the protocol described above.

[11] = system: transplantable rat prostate tumor R3327-H (Dunning); settings: saline suspension, s.c. every other day, 15 mg/kg body weight; cited from earlier work
[12] = system: transplantable tumor P-A III; settings: cited from earlier work

## COC(=O)c1ccccc1-c1c2ccc(=N)cc-2oc2cc(N)ccc12.Cl [Rh-123, methyl o-(6-amino-3-imino-3H-xanthen-9-yl) benzoate monohydrochloride]
Swiss Webster mice; 15 mg/kg Rh-123 in 50% DMSO, group of five mice
  mortality: one of five mice died
Swiss Webster mice; 20 mg/kg Rh-123 in 50% DMSO, group of five mice
  mortality: Three of five mice died
Swiss Webster mice; 20 mg/kg Rh-123 in alcohol-glucose solution
  mortality: no mortality
[1]
  effect on normal surrounding tissue: no change
  gross changes in the tumor mass of the prostate complex: No gross changes
[1]; sacrificed 1 week after last dose
  microscopic examination of tumor tissue of prostate complex: marked cellular and acinar destruction, pyknosis, cytoplasmic smearing, and intraepithelial cyst formation
[2]; PC-3
  recovery of treated cells in Rh-123-free normal growth medium: poor
  relative sensitivity to Rh-123 exposure among the cancer cell lines: most sensitive
[2]; PC-3, exposed 2 days or longer, concentrations as low as 1.25–2 μg/ml
  loss of viable cells: marked
[3]
  recovery of treated cells in Rh-123-free normal growth medium: poor
[3]; exposed 2 days or longer, concentrations as low as 1.25–2 μg/ml
  loss of viable cells: marked
[4]; DU-145
  recovery of treated cells in Rh-123-free normal growth medium: poor
  relative sensitivity to Rh-123 exposure among the cancer cell lines: more refractory than either the PC-3 or the LNCaP cells
[4]; DU-145, exposed 2 days or longer, concentrations as low as 1.25–2 μg/ml
  loss of viable cells: marked
[5]; 0–80 μg/ml, FIG. 5
  growth inhibition due to Rh-123 treatment: much less than that observed with tumorigenic cells
[5]; after prolonged Rh-123 exposures
  viability of cells: remained relatively high
[6]; PC-3, 10 μg/ml for 72 hours
  suppression of colony growth: Complete suppression
[6]; PC-3, exposure to 10 μg/ml
  colony growth: greatly suppressed
[7]; 10 μg/ml for 72 hours
  suppression of colony growth: Complete suppression
[7]; exposure to 10 μg/ml
  colony growth: greatly suppressed
[8]; DU-145, 10 μg/ml for 72 hours
  suppression of colony growth: Complete suppression
[8]; DU-145, compared with PC-3 and LNCaP
  growth suppression (colony growth): less marked
[9]; 72-hour exposure
  maximal suppression of colony growth: 28 % of control
[9]; 72-hour exposure to 50 μg/ml (data not shown)
  suppression of colony growth: Total suppression was not achieved
[10]
  course of prostate specific acid phosphatase in blood after 48 hours: steadily decreased until two months after the infusion
[11]
  effect on tumor (histology): significant destructive alteration of the acinar cells
[12]; Rh-123 dissolved in DMSO
  effect on tumor cells: significant destruction of tumor cells
  sensitivity of tumor to Rh-123: highly sensitive
[12]; rat, in vivo
  toxicity in normal cells: no toxicity noted
[12]; remnants of Rh-123-treated tumor
  tumor growth after injection of tumor remnants into untreated susceptible L-W rats: no tumor growth
